Assay results taken from the supplement of paper PMC10307832.

Experiments:
Experiment in all cases: relative viability (nuclei count vs DMSO), 5 days (fraction); higher = more cells survive
[1] = compound: CC1=C(C(=O)N2C=CSC2=N1)CCN3CCC(=C(C4=CC=CC=C4)C5=CC=C(C=C5)F)CC3 + CC(=O)Nc1cccc(-n2c(=O)n(C3CC3)c(=O)c3c(Nc4ccc(I)cc4F)n(C)c(=O)c(C)c32)c1 [Trametinib] (partner 0.02 µM)
Summary of the method: (§1)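 Relative viability was taken as the ratio of nuclei in treated wells to nuclei in vehicle wells. Lung cancer cell lines in 1536-well plates received compounds by pin tool one day after seeding, either one drug alone or a fixed anchor-drug dose plus five library-drug doses (not always all listed) in √10 steps. Nuclei were counted on 4× images after 5 days of treatment, and values are medians of duplicate plates.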

[2] = compound: CC1=C(C(=O)N2C=CSC2=N1)CCN3CCC(=C(C4=CC=CC=C4)C5=CC=C(C=C5)F)CC3 + CC(C)C[C@H](NC(=O)[C@H](Cc1ccccc1)NC(=O)c1cnccn1)B(O)O [Bortezomib] (partner 0.002 µM)
Summary of the method: as §1

[3] = compound: CC1=C(C(=O)N2C=CSC2=N1)CCN3CCC(=C(C4=CC=CC=C4)C5=CC=C(C=C5)F)CC3 + CS(=O)(=O)N1CCN(Cc2cc3nc(-c4cccc5[nH]ncc45)nc(N4CCOCC4)c3s2)CC1 [Pictilisib] (partner 1 µM)
Summary of the method: as §1

[4] = compound: CC1=C(C(=O)N2C=CSC2=N1)CCN3CCC(=C(C4=CC=CC=C4)C5=CC=C(C=C5)F)CC3 + O=C(c1cc(Cc2n[nH]c(=O)c3ccccc23)ccc1F)N1CCN(C(=O)C2CC2)CC1 [Olaparib] (partner 8 µM)
Summary of the method: as §1

Cell Line	relative viability ([1]; first compound 0.08 µM)	relative viability ([1]; first compound 0.253 µM)	relative viability ([1]; first compound 0.8 µM)	relative viability ([1]; first compound 2.53 µM)	relative viability ([1]; first compound 8 µM)	relative viability ([2]; first compound 0.08 µM)	relative viability ([2]; first compound 0.253 µM)	relative viability ([2]; first compound 0.8 µM)	relative viability ([2]; first compound 2.53 µM)	relative viability ([2]; first compound 8 µM)	relative viability ([3]; first compound 0.08 µM)	relative viability ([3]; first compound 0.253 µM)	relative viability ([3]; first compound 0.8 µM)	relative viability ([3]; first compound 2.53 µM)	relative viability ([3]; first compound 8 µM)	relative viability ([4]; first compound 0.08 µM)	relative viability ([4]; first compound 0.253 µM)	relative viability ([4]; first compound 0.8 µM)	relative viability ([4]; first compound 2.53 µM)	relative viability ([4]; first compound 8 µM)
NCI-H2228	0.481	0.417	0.612	0.506	0.332	0.939	0.928	1.25	1.17	0.64	0.648	0.295	0.276	0.504	0.283	0.591	0.701	0.723	0.728	0.347
NCI-H2347	0.271	0.267	0.262	0.352	0.309		1.18	0.957	1.04	0.895	0.417	0.691	0.764	0.394	0.614	0.58	0.571	0.616	0.549	0.598
NCI-H2405	0.711		0.676	0.742	0.464	0.872	0.969	0.999	0.732	0.814	0.426	0.432	0.481	0.531	0.347	0.941		0.889	0.989	0.79
NCI-H3122	0.214	0.247	0.229	0.235	0.229	1.04	1.04	0.993	1.14	1.16	0.72	0.678	0.574	0.768	0.623	0.458	0.627	0.595	0.628	0.371
PC-3 [JPC-3]	0.645		0.834	0.822	0.664	0.811	0.895	0.969	1.01	0.642	0.78	0.746	0.72	0.765	0.711	1.04		1.21	1.31	1.05
PC-14	0.523	0.984	0.927	1.61	0.476	0.9	0.759	1.01	1.09	0.592	0.604	0.617	0.708	0.93	0.399	0.209	0.223	0.27	0.251	0.253
RERF-LC-KJ	0.833	0.893	0.837	0.794	0.578	1.02	1.02	1.16	1.18	1	0.627	0.495	0.511	0.497	0.487	0.968	0.819	0.845	0.89	0.706
SK-LU-1	0.526	0.424	0.479	0.645	0.402	1.08	0.965	1.05	1.19	1.01	0.538	0.587	0.655	0.573	0.494	0.442	0.45	0.459	0.429	0.402
SW 1573	0.562	0.678	0.646	0.652	0.354	1.26	1.16	1.05	1.06	0.649		0.478	0.478	0.486	0.264	0.502	0.323	0.465	0.625	0.357
UMC-11	0.461		0.701	0.778	0.556	0.793	0.609	0.731	0.861	0.595	0.953	0.811	0.8	1.15	0.733	0.44		1.05	0.307	0.342
